From US20230151003A1, “COMPOUNDS AND METHODS OF USE” (Exelixis, Inc., priority 2020, published 2023)

What was measured:
Assay type in all cases: cell-based
Met = Met (Homo sapiens, UniProt P08581); assay: Met autophosphorylation ELISA in PC-3 cells; parameters: endogenous in cells; host or cells: PC-3 prostate cancer cells (ATCC #CRL-1435); details: Table 3 Cellular Activities, HGF-stimulated, phospho-Met ELISA, read-out: c-Met IC50
Method: PC-3 prostate cancer cells (ATCC #CRL-1435) were seeded at 4×10^4 cells/well onto 24-well plates (Greiner #662165), in DMEM (Thermo Fisher #11995-040) containing 10% FBS (Thermo Fisher #26140-079), 1% MEM NEAA (Thermo Fisher #11140-050), 1% GlutaMax (Thermo Fisher #35050-061), and 1% Penicillin Streptomycin (Thermo Fisher #15140-122). PC-3 cells were incubated at 37° C., 5% CO2 for 24 h and then starved for 3 h in serum-free medium. Test compounds were serially diluted to produce an 8-point dose curve in fresh serum-free medium to a final concentration of 0.3% DMSO (vehicle) and added to the cells and incubated for 1 h. Cells were then stimulated with 100 ng/mL recombinant human HGF (R&D Systems #294-HG-250) for 10 min, washed with cold PBS, and immediately lysed with 130 μL of cold 1× lysis buffer [20 mM Tris, 137 mM sodium chloride, 2 mM EDTA, 10% glycerol, 1% NP-40 alternative, 1 mM activated sodium orthovanadate, 1 mM PefaBloc SC (Sigma-Aldrich #11429868001), protease/phosphatase inhibitor tablet (Thermo Fisher #A32959)]. Lysates were clarified by centrifugation and 100 μL/well added into the PathScan phospho-Met (panTyr) Sandwich ELISA (Cell Signaling Technology #7333). Assay was performed according to manufacturer's instructions. Positive control wells (100% activity) contained HGF-stimulated, DMSO-treated cell lysates. Negative control wells (0% activity) contained HGF-stimulated, reference inhibitor-treated cell lysates. IC50 values were calculated by nonlinear regression analysis using a 4-parameter logistic curve fit in ActivityBase XE (IDBS).

Mer = target: T1, Mer (Homo sapiens, UniProt Q12866); assay: Mer autophosphorylation ELISA in transient transfected 293A cells; details: Table 3 Cellular Activities; MERTK-transfected 293A cells, phospho-Mer ELISA
T1 construct: host or cells: 293A cells (Thermo Fisher #R70507)
T1 sequence (Q12866 21-999): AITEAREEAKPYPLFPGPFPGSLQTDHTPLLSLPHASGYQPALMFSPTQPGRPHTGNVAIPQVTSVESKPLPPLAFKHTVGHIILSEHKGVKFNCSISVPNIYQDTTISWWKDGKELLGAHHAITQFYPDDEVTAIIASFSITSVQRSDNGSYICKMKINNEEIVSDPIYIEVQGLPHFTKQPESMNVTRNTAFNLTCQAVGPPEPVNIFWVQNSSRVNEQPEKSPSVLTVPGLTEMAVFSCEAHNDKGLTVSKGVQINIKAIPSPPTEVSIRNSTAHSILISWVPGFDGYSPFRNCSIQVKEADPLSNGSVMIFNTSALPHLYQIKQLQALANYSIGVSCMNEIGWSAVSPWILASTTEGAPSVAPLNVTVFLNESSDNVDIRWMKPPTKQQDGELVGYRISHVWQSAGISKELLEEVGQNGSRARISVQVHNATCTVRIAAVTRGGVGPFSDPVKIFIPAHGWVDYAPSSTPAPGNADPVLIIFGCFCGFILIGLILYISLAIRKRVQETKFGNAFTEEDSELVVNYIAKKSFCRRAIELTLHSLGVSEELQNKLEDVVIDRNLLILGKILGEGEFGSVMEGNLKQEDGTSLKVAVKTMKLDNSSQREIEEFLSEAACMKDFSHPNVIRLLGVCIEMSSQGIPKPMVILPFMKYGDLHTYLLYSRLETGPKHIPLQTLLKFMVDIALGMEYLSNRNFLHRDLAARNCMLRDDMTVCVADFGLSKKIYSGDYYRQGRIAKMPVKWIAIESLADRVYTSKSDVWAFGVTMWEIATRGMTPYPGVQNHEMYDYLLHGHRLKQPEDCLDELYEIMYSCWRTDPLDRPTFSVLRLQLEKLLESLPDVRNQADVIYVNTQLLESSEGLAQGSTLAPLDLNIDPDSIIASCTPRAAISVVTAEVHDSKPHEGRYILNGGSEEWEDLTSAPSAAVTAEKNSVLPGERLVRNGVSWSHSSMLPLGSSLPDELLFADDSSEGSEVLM
Method: 293A cells (Thermo Fisher #R70507) were seeded at 1.5×10^6 cells/well onto 100 mm dish (Greiner #664169), in DMEM (Thermo Fisher #11995-040) containing 10% FBS (Thermo Fisher #26140-079), 1% MEM NEAA (Thermo Fisher #11140-050), 1% GlutaMax (Thermo Fisher #35050-061), and 1% Penicillin Streptomycin (Thermo Fisher #15140-122). 293A cells were incubated at 37° C., 5% CO2 for 24 h and then transfected with 6μg MERTK DNA (Genecopoeia #EX-Z8208-M02) using TransIT LT1 transfection reagent (Mirus-Bio #MIR2305). After 24 h incubation, the transfected 293A cells were seeded at 1×10^5 cells/well onto 96-well plates (Corning #3904) in DMEM growth medium overnight. Test compounds were serially diluted to produce an 8-point dose curve in fresh serum-free medium to a final concentration of 0.3% DMSO (vehicle) and added to the cells and incubated for 1 h. Cells were then immediately lysed with 150 μL of cold 1× lysis buffer […], 137 mM sodium chloride, 2 mM EDTA, 10% glycerol, 1% NP-40 alternative, 1 mM activated sodium orthovanadate, 1 mM PefaBloc SC (Sigma-Aldrich #11429868001), protease/phosphatase inhibitor tablet (Thermo Fisher #A32959)]. Lysates were clarified by centrifugation and 50 μL/well added into the human phospho-Mer DuoSet IC ELISA (R&D Systems #DYC2579-2). Assay was performed according to manufacturer's instructions and sample phospho-Mer concentrations were extrapolated using human phospho-Mer control (R&D Systems #841793) as a standard. Positive control wells (100% activity) contained DMSO-treated cell lysates. Negative control wells (0% activity) contained reference inhibitor-treated cell lysates. IC50 values were calculated by nonlinear regression analysis using a 4-parameter logistic curve fit in ActivityBase XE (IDBS).

KDR = KDR (Homo sapiens, UniProt P35968); assay: KDR autophosphorylation ELISA in HUVEC cells; parameters: endogenous in cells; host or cells: HUVEC (Lonza #C2519A); details: Table 3 Cellular Activities, VEGF165-stimulated, phospho-KDR ELISA
Method: Human umbilical vein endothelial cells or HUVEC (Lonza #C2519A) were seeded at 2×10^4 cells/well onto 96-well plates (Corning #3904), in EGM-2 growth medium (Lonza #CC-3162) containing 1% Penicillin Streptomycin (Thermo Fisher #15140-122). HUVEC cells were incubated at 37° C., 5% CO2 for 24 h and then starved for 24 h in serum-free EBM-2 basal medium (Lonza #CC-3156) containing 1% Penicillin Streptomycin. Test compounds were serially diluted to produce an 8-point dose curve in fresh serum-free medium to a final concentration of 0.3% DMSO (vehicle) and added to the cells and incubated for 1 h. Cells were then stimulated with 100 ng/mL recombinant human VEGF165 (R&D Systems #293-VE-500) for 5 min, washed with cold PBS, and immediately lysed with 130 μL of cold 1× lysis buffer [20 mM Tris, 137 mM sodium chloride, 2 mM EDTA, 10% glycerol, 1% NP-40 alternative, 1 mM activated sodium orthovanadate, 1 mM PefaBloc SC (Sigma-Aldrich #11429868001), protease/phosphatase inhibitor tablet (Thermo Fisher #A32959)]. Lysates were collected and 100 μL/well added into the human phospho-KDR DuoSet IC ELISA (R&D Systems #DYC1766-2). Assay was performed according to manufacturer's instructions and sample phospho-KDR concentrations were extrapolated using human phospho-KDR control (R&D Systems #841421) as a standard. Positive control wells (100% activity) contained VEGF165-stimulated, DMSO-treated cell lysates. Negative control wells (0% activity) contained non-stimulated cell lysates. IC50 values were calculated by nonlinear regression analysis using a 4-parameter logistic curve fit in ActivityBase XE (IDBS).

KDR, sequence (P35968 20-1356): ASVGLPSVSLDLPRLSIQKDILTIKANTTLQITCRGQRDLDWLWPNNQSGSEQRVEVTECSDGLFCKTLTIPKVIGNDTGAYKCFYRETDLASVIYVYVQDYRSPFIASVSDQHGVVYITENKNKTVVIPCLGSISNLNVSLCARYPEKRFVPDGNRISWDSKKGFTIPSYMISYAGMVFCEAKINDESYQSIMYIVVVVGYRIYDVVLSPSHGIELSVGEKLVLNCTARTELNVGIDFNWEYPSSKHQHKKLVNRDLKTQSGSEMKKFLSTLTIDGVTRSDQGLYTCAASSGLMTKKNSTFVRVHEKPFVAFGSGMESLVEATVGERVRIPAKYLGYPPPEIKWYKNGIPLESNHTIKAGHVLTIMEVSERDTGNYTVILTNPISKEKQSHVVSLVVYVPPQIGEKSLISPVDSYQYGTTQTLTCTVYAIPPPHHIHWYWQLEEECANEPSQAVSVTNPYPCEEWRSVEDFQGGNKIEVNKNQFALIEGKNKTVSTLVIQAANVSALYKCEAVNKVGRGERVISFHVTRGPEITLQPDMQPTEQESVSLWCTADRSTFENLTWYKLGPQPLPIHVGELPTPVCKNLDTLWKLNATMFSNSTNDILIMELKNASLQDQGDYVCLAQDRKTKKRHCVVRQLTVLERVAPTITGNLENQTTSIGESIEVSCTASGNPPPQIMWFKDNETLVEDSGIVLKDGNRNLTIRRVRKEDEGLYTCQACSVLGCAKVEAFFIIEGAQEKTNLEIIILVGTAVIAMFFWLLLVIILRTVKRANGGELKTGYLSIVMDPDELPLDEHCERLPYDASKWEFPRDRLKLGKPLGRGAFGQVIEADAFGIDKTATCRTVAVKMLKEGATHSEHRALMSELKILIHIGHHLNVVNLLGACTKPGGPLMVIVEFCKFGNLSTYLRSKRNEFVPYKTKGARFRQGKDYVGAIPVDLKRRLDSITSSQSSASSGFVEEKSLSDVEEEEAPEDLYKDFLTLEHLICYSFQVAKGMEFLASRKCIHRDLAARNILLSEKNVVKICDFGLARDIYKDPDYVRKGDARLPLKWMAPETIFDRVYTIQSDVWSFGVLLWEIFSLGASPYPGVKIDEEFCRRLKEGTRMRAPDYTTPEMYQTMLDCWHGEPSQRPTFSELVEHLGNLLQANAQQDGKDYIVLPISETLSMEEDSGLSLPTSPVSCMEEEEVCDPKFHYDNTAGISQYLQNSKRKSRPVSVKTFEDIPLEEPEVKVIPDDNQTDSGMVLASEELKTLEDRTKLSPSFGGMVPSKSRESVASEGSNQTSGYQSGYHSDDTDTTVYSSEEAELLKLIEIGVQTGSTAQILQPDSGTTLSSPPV
Met, sequence (P08581 25-1390): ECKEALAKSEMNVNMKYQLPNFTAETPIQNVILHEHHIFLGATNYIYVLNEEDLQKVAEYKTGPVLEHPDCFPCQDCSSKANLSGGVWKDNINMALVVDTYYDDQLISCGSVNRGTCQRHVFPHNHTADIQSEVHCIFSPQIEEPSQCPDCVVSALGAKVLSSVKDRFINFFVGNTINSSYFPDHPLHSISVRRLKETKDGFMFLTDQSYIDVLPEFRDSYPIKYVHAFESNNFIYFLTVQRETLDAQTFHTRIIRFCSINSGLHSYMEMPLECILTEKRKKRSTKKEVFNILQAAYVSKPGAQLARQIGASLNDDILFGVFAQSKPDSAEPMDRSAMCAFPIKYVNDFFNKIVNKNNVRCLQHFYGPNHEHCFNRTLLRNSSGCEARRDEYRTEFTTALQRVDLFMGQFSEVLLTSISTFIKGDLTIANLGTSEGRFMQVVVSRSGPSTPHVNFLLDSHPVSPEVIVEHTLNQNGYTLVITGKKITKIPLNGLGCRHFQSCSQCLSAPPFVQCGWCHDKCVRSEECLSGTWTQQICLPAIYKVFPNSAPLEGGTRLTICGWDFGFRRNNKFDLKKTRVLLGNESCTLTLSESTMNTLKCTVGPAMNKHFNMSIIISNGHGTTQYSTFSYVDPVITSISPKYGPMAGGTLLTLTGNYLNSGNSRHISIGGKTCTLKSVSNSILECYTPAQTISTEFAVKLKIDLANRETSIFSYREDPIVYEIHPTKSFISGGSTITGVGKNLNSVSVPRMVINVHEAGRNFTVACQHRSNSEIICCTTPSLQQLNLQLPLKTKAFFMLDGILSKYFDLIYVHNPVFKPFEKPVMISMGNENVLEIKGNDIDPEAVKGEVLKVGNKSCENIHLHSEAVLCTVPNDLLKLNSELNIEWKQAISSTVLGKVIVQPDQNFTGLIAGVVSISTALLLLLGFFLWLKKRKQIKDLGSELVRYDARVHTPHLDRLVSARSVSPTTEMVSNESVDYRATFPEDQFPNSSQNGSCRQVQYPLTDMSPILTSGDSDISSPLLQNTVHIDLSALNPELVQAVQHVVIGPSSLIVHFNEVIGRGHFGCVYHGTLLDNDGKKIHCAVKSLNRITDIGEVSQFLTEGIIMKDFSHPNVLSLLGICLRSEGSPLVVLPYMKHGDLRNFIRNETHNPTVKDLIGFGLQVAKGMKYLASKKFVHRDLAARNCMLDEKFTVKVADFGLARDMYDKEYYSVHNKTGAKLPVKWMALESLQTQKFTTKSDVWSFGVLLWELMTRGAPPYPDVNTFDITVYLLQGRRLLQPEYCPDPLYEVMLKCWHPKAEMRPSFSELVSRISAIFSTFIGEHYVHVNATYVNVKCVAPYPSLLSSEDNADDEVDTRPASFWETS

SMILES | IC50 (Met) [nM] | IC50 (Mer) [nM] | IC50 (KDR) [nM]
COCc1nc(C)c(-c2ccnc(C)c2)c(O)c1C(=O)Nc1ccc(Oc2ccnc3cc(OC)c(OC)nc23)c(F)c1 [Compound 198, N-[4-[(6,7-Dimethoxy-1,5-naphthyridin-4-yl)oxy]-3-fluorophenyl]-4-hydroxy-2-(methoxymethyl)-6-methyl-5-(2-methylpyridin-4-yl)pyridine-3-carboxamide] | ≤ 100 | ≤ 100 | ≤ 100
COCc1nc(C)c(-c2cccc(C)n2)c(O)c1C(=O)Nc1ccc(Oc2ccnc3cc(OC)c(OC)nc23)c(F)c1 [Compound 197, N-[4-[(6,7-Dimethoxy-1,5-naphthyridin-4-yl)oxy]-3-fluorophenyl]-4-hydroxy-2-(methoxymethyl)-6-methyl-5-(6-methylpyridin-2-yl)pyridine-3-carboxamide] | ≤ 100 | ≤ 100 | ≤ 100
COCCOc1cnc2c(Oc3ccc(NC(=O)c4c(C)n(C)c(C)c(-c5coc6ccccc56)c4=O)cc3F)ccnc2c1 [Compound 265, 5-(1-Benzofuran-3-yl)-N-[3-fluoro-4-[[7-(2-methoxyethoxy)-1,5-naphthyridin-4-yl]oxy]phenyl]-1,2,6-trimethyl-4-oxopyridine-3-carboxamide] | 300 to 1000 | 300 to 1000 | 300 to 1000

The remaining lines, values ahead:

IC50 (Met) [nM] | IC50 (Mer) [nM] | IC50 (KDR) [nM] | SMILES
≤ 100 | ≤ 100 | ≤ 100 | CCc1c(C(=O)Nc2ccc(Oc3ccnc4cc(OCCOC)c(OC)nc34)c(F)c2)c(=O)c(-c2ccco2)c(C)n1C [Compound 326, 2-Ethyl-N-[3-fluoro-4-[[6-methoxy-7-(2-methoxyethoxy)-1,5-naphthyridin-4-yl]oxy]phenyl]-5-(furan-2-yl)-1,6-dimethyl-4-oxopyridine-3-carboxamide]
≤ 100 | ≤ 100 | 300 to 1000 | COc1cc2nccc(Oc3ccc(NC(=O)c4c(C)n(CC(F)F)cc(-c5ccco5)c4=O)cc3F)c2nc1OC [Compound 275, 1-(2,2-Difluoroethyl)-N-[4-[(6,7-dimethoxy-1,5-naphthyridin-4-yl)oxy]-3-fluorophenyl]-5-(furan-2-yl)-2-methyl-4-oxopyridine-3-carboxamide]
